Reference: patent US4732902A, “Pyrroloisoquinolinyl-dimethyloxoalkyl alkonoates and their use as antipsychotic agents” (Hoffmann-La Roche Inc., priority 1986, dated 1988)
“And” between values parts separate entries of the source, which are not always exact repeats. Equal values may be shown once.

Columns and labels:
[1] = Esterase cleavage of prodrug esters by incubation with rat liver homogenate; type: in vitro ADME; conditions: liver 9000xg supernatant, rat liver 9,000×g supernatant, pH 7.4, 37° C., 0.5 μmole substrate, read-out: Formation of IIa (piquindone) as % of incubated test compound I in 1 hr.
Method: In this test, acetone solutions of the test compounds (0.5 μmole/50 μL) were added to an incubation medium consisting of 2.7 ml 0.1M potassium hydrogenphosphate (pH 7.4) and 0.3 ml rat liver 9,000×g supernatant. The media were then incubated for 1 hour at 37° C. Controls consisted of a sample containing the complete medium and substrate which was not incubated, a sample containing only phosphate buffer and substrate, and a sample containing the complete medium but lacking substrate.
The incubation media were fractionated with a Waters C-18 SEP-PAK. Prior to sample application, the SEP-PAK was washed with 10 ml of methanol and 20 ml of water. After sample application, the SEP-Pak was washed with 10 ml of water and 3 ml of methanol. The amount of the liberated compound of formula II was measured by high pressure liquid chromatography on a 30-cm Waters μ-Bondapak C-18 column, equilibrated with 70:30:1 methanol:water:ammonium hydroxide.

[2] = system: male SPF rats (conditioned avoidance response); assay: Pole climb avoidance test; type: in vivo; conditions: rat; for ED50 / ED (90-100): im, intramuscular in sesame oil; for ED50: at peak of action, read-out: Blockade of Avoidance Response (BAR), acute ED50; for ED (90-100): dose giving 90-100% block within 24 hours, read-out: Blockade of Avoidance Response (BAR), acute 100% BAR dose
Source text: In vivo activity. Pole Climb Avoidance Test. In the pole climb test, antipsychotics characteristically disrupt an acquired discrete conditioned avoidance behavior in doses well below those which suppress the response to unconditioned stimuli (escape). The principle of the test procedure was described by Courvoisier S. et al. (Arch. Int. Pharmacodyn 92, 305, 1954), Cook, L. et al. (Ann. N.Y. Acad. Sci. 66, 740-752, 1957) and Pfeiffer, C. et al. (Ann, N.Y. Acad. Sci. 66, 753-764, 1957).
The animals were male SPF rats (stock Fuellinsdorf Albino, outbred) weighing 200-220 g at the end of a discrete conditioned avoidance training.
The test apparatus was a sound-attenuated plexiglass chamber (41×30×30 cm). The floor was a grid consisting of 27 stainless steel rods, to which a scrambled current of 0,8 mA could be delivered by means of a stimulator. The safety area was a vertical pole (4,3 cm diameter, 24 cm long) attached to the top of the chamber. The free lower end of the pole was 6 cm above the grid floor. A buzzer was mounted within the testing enclosure.
The rats were placed in the plexiglass chamber and trained to jump to the pole during a buzzer stimulus (conditioned stimulus CS) lasting 10 sec, in order to avoid an immediately following electrical footshock (unconditioned stimulus US) of 30 sec duration delivered to the grid floor in addition to the CS. If the rat climbed to the pole during the CS or CS plus US, the stimuli (buzzer, footshock) were immediately terminated.
The pole climb response occurring during the CS period is called an avoidance response or conditioned response (CAR or CR), that occurring during exposure to CS plus US escape response of unconditioned response (UER or UR). Following one training trial (exposure to one CS and US respectively) the rats were returned to their home cage. After 15-17 trials rats were jumping during the buzzer stimulation only and were ready for drug testing.
A group of 10 trained rats was used per dose (graded doses, geometric progression: factor 3.16). The test compounds were administered intramuscularly in a sesame oil solution containing 25 mg of compounds per ml of solution.
Dose-effect curves of block of conditioned response (BCR) were constructed by plotting the log dose against the effect (in percent BCR) at the peak of action. From these curves the ED50 for BCR were graphically determined. The potency of a drug for suppressing CR was expressed by the ED50 for BCR. For the evaluation of the long-term effect, a drug dose eliciting a non-supra-maximal 90-100% block of avoidance response within 24 hours was followed up at 24 hour intervals.

dopamine receptors = target: T1, dopamine receptors (Rattus norvegicus, UniProt P61169); assay: 3H-spiroperidol binding test in rat striatal brain homogenates; conditions: 0.2 nanomolar 3H-spiroperidol, 20 min incubation, no esterases, read-out: 3H-Spiroperidol binding in vitro, IC50
T1 construct: rat striatal brain homogenates; from tissue; host or cells: rat striatum (brain homogenate)
Method: Spiroperidol binding test. In the absence of esterases which trigger the release of the compound of formula II from the compound of formula I, there is only weak activity in the 3H-spiroperiodol binding assay, an in vitro test which measures binding to dopamine receptors. In this test, rat striatal brain homogenates were incubated for 20 min. in the presence of 0.2 nanomolar ^3 H-spiroperidol and varying concentrations of test compounds. The incubations were terminated by rapid filtration through Whatman GF/B filters. followed by 2×5 mL washes with ice-cold assay buffer (50 mM tribase-HCl pH 7.7 which contains fixed concentrations of 0.1% ascorbic acid, 120 mM sodium chloride, 5 mM potassium chloride, 2 mM calcium chloride, and 1 mM magnesium chloride).

[3] = single i.m. 100% BAR dose in sesame oil

T1 sequence (P61169 whole entry): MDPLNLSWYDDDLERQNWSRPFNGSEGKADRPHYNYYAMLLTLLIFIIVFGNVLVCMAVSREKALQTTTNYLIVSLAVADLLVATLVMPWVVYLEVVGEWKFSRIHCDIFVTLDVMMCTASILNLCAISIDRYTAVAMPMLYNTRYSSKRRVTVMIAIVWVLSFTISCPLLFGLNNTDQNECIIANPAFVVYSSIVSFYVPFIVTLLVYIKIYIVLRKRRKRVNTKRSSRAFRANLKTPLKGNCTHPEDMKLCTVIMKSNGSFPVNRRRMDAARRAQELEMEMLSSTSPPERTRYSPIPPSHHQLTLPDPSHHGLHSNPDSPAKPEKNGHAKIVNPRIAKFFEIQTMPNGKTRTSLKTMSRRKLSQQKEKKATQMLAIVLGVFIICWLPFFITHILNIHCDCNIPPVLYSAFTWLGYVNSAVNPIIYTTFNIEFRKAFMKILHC

Row | Compound | metabolised at 1 h [1] [%] | IC50 (dopamine receptors) | ED50 [2] [mg/kg] | ED (90-100) [2] [mg/kg] | Duration: % BAR, Day 1 [2, 3] [%] | Duration: % BAR, Day 2 [2, 3] [%] | Duration: % BAR, Day 3 ([2]; single i.m. 100% BAR dose in sesame oil, Day 3) [%] | Duration: % BAR, Day 4 ([2]; single i.m. 100% BAR dose in sesame oil, Day 4) [%] | Duration: % BAR, Day 5 ([2]; single i.m. 100% BAR dose in sesame oil, Day 5) [%] | Duration: % BAR, Day 6-13 ([2]; single i.m. 100% BAR dose in sesame oil, Days 6-13)
1 | CCc1c2c(n(C(=O)C(C)(C)CCOC(C)=O)c1C)C[C@H]1CCN(C)C[C@@H]1C2=O (relative stereo) [Ia] | 88 ± 2 | 250 nM | 0.6 | 3 | 90 | 50 |  |  |  | 
2 | CCCCCCCC(=O)OCCC(C)(C)C(=O)n1c(C)c(CC)c2c1C[C@H]1CCN(C)C[C@@H]1C2=O (relative stereo) [Ib, 2,6-Dimethyl-1-[2,2-dimethyl-4-[(1-oxooctyl)oxy]-1-oxobutyl]-3-ethyl-1,4a,5,6,7,8,8a,9-octahydro-4a,8a-trans-4H-pyrrolo[2,3-g]isoquinolin-4-one] | 104 ± 3.3 | 195 nM |  |  |  |  |  |  |  | 
3 | CCCCCCCCCC(=O)OCCC(C)(C)C(=O)n1c(C)c(CC)c2c1C[C@H]1CCN(C)C[C@@H]1C2=O (relative stereo) [Ic, 2,6-Dimethyl-1-[2,2-dimethyl-4-[(1-oxodecyl)oxy]-1-oxo-butyl]-3-ethyl-1,4a,5,6,7,8,8a,9-octahydro-4a,8a-trans-4H-pyrrolo[2,3-g]isoquinolin-4-one] | 102 | 870 nM and 1000 nM | 3.6 | 10 | 100 | 100 | 100 | 90 | 80 | 50-60%

Continued, in another order:

Row | metabolised at 1 h [1] [%] | IC50 (dopamine receptors) | Compound | ED50 [2] [mg/kg] | ED (90-100) [2] [mg/kg] | Duration: % BAR, Day 1 [2, 3] [%] | Duration: % BAR, Day 2 [2, 3] [%] | Duration: % BAR, Day 3 ([2]; single i.m. 100% BAR dose in sesame oil, Day 3) [%] | Duration: % BAR, Day 4 ([2]; single i.m. 100% BAR dose in sesame oil, Day 4) [%] | Duration: % BAR, Day 5 ([2]; single i.m. 100% BAR dose in sesame oil, Day 5) [%] | Duration: % BAR, Day 6-13 ([2]; single i.m. 100% BAR dose in sesame oil, Days 6-13)
4 | 77.2 ± 0.8 | 570 nM | CCCCCCCCCCCC(=O)OCCC(C)(C)C(=O)n1c(C)c(CC)c2c1C[C@H]1CCN(C)C[C@@H]1C2=O (relative stereo) [Id, 2,6-Dimethyl-1-[2,2-dimethyl-4-[(1-oxododecyl)oxy]-1-oxobutyl]-3-ethyl-1,4a,5,6,7,8,8a,9-octahydro-4a,8a-trans-4H-pyrrolo[2,3-g]isoquinolin-4-one] |  |  |  |  |  |  |  | 
5 | 31 ± 1 | 640 nM | CCCCCCCCCCCCCCCC(=O)OCCC(C)(C)C(=O)n1c(C)c(CC)c2c1C[C@H]1CCN(C)C[C@@H]1C2=O (relative stereo) [Ie, 2,6-Dimethyl-1-[2,2-dimethyl-4-[(1-oxohexadecyl)oxy]-1-oxobutyl]-3-ethyl-1,4a,5,6,7,8,8a,9-octahydro-4a,8a-trans-4H-pyrrolo[2,3-g]isoquinolin-4-one] | 17 | 30 | 100 | 10 |  |  |  | 
6 | 12.1 ± 0.4 | 1000 nM | CCCCCCCCCCCCCCCCCC(=O)OCCC(C)(C)C(=O)n1c(C)c(CC)c2c1C[C@H]1CCN(C)C[C@@H]1C2=O (relative stereo) [If, 2,6-Dimethyl-1-[2,2-dimethyl-4-[(1-oxooctadecyl)oxy]-1-oxobutyl]-3-ethyl-1,4a,5,6,7,8,8a,9-octahydro-4a,8a-trans-4H-pyrrolo[2,3-g]isoquinolin-4-one] | 16.2 | 30 | 100 | 10 |  |  |  | 
7 | 11.7 ± 0.7 | 1000 nM | CCCCCCCCCCCCCCCCCCCC(=O)OCCC(C)(C)C(=O)n1c(C)c(CC)c2c1C[C@H]1CCN(C)C[C@@H]1C2=O (relative stereo) [Ig, 2,6-Dimethyl-1-[2,2-dimethyl-4-[(1-oxoeicosanoyl)oxy]-1-oxobutyl]-3-ethyl-1,4a,5,6,7,8,8a,9-octahydro-4a,8a-trans-4H-pyrrolo[2,3-g]isoquinolin-4-one] | 13.8 | 30 | 100 | 10 |  |  |  | 
